Source: US20090156582A1, “Pyrazole Compound” (priority 2005, published 2009)

Target: T1, recombinant GSK3β enzyme (human GSK3β) (Homo sapiens, UniProt P49841)
T1 construct: FLAG (N); made in house; host or cells: Sf-21 insect cells, recombinant baculovirus (pFASTBAC1 / BAC-TO-BAC)
Assay: Measurement of GSK3β inhibitory activity
Format: biochemical
Settings: glycogen synthase peptide substrate, Kinase Glo luminescence, read-out: IC50 (concentration of test compound needed for 50% inhibition of luminescent intensity), GSK3β inhibitory activity
Source text: Human GSK3β gene was cloned by a PCR method using a primer set:
prepared using human brain cDNA (Clontech; trade name: QUICK-Clone cDNA) as a template and in reference to the base sequence of GSK3β gene registered in GenBank under Accession Number NM_002093.
PCR was done according to the protocol attached to KOD plus DNA polymerase (Toyo Boseki Kabushiki Kaisha). The obtained PCR product was electrophoresed on agarose gel (1%), and 1.2 kb of DNA fragment including GSK3β gene was collected from the gel and then digested with restriction enzymes EcoR I and Sal I. The restriction enzyme-treated DNA was electrophoresed on agarose gel (1%). The obtained DNA fragment was collected, and ligated to the plasmid pFASTBAC1 (Invitrogen), which had been digested with restriction enzyme EcoR I and Sal I, to produce expression plasmid pFB-GSK3B. The base sequence of insertion fragment was confirmed to find that it corresponded to the objective sequence. In addition, virus stock BAC-GSK3B of recombinant Baculovirus was prepared using BAC-TO-BAC Baculovirus Expression System (Invitrogen).
Sf-21 cells (Invitrogen) were seeded on Sf-900 II SFM medium (Invitrogen)(150 ml) containing 10% fetal calf serum at 1×10^6 cells/ml, and cultured at 27° C. for 24 hr. The virus stock […] obtained above of recombinant Baculovirus was added by 150 μl to the obtained culture medium, and the cells were cultured for another 60 hr. The culture medium was centrifuged (3000 rpm, 10 min) to separate the cells, and the cells were washed once with PBS. The cells were suspended in 10 ml of cell lysis buffer (25 mM HEPES (pH 7.5), 1% Triton X, 130 mM sodium chloride, 1 mM EDTA, 1 mM Dithiothreitol, 25 mM β-glycerophosphate, Protease inhibitor Complete (Boehringer), 1 mM Sodium orthovanadate), treated 4 times using a homogenizer (POLYTRON) at 20000 rpm for 30 sec to disrupt the cells. The disrupted solution of cells was centrifuged (40000 rpm, 45 min.), and GSK3β was purified from the obtained supernatant using Anti-FLAG M2 Affinity Gel (Sigma Ltd.).
10 μl of ATP solution (2.5 μM ATP) was added to the obtained mixture, and the mixture was reacted at room temperature for 30 min. Kinase Glo Reagent (Promega) (50 μl) was added to the reaction solution to stop the reaction. After reaction at room temperature for 10 min, the luminescent intensity was measured using ARVO multilabel counter (PerkinElmer Life Sciences). The concentrations of the test compounds needed for 50% inhibition of luminescent intensity (IC50 value) were calculated by PRISM 3.0 (GraphPad Software).

T1 sequence (P49841 whole entry): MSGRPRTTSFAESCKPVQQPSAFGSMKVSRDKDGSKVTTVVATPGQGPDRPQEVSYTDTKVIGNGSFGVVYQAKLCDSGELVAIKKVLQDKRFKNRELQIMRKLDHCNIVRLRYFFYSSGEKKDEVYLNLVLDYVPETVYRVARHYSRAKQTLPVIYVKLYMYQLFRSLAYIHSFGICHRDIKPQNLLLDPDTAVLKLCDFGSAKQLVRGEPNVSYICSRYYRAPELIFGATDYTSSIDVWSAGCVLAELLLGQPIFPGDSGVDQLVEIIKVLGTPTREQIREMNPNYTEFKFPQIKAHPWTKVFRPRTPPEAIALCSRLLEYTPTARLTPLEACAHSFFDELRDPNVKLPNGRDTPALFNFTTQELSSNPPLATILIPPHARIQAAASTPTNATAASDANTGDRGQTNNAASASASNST

Compound | IC50
O=C(CNC(=O)c1n[nH]cc1NC(=O)c1ccccn1)c1ccccc1 [Example 359, N-(3-(((2-oxo-2-phenylethyl)amino)carbonyl)-1H-pyrazol-4-yl)pyridine-2-carboxamide] | < 100 nM
O=C(CC1CCCC1)Nc1c[nH]nc1C(=O)NCCc1ccccc1 [Example 121, 4-[(cyclopentylacetyl)amino]-N-(2-phenylethyl)-1H-pyrazole-3-carboxamide] | < 100 nM
O=C(Nc1c[nH]nc1C(=O)NCC(F)(F)F)c1ccccn1 [Example 360, N-(3-(((2,2,2-trifluoroethyl)amino)carbonyl)-1H-pyrazol-4-yl)pyridine-2-carboxamide] | < 100 nM
O=C(COc1ccccc1)Nc1c[nH]nc1C(=O)NCc1ccco1 [Example 145, N-(2-furylmethyl)-4-[(phenoxyacetyl)amino]-1H-pyrazole-3-carboxamide] | < 100 nM
COc1ccc(C(=O)Nc2c[nH]nc2C(=O)NCc2ccccc2)cc1 [Example 112, N-benzyl-4-[(4-methoxybenzoyl)amino]-1H-pyrazole-3-carboxamide] | < 100 nM
O=C(Nc1c[nH]nc1C(=O)NCc1ccccc1)c1ccccc1 [Example 109, 4-(benzoylamino)-N-benzyl-1H-pyrazole-3-carboxamide] | < 100 nM
CC(=O)Nc1cccc(C(=O)Nc2c[nH]nc2C(=O)NCC(F)(F)F)c1 [Example 375, 4-((3-(acetylamino)benzoyl)amino)-N-(2,2,2-trifluoroethyl)-1H-pyrazole-3-carboxamide] | < 100 nM
Cc1ccc(C(=O)Nc2c[nH]nc2C(=O)NC2CCCC2)cn1 [Example 364, N-(3-((cyclopentylamino)carbonyl)-1H-pyrazol-4-yl)-6-methylnicotinamide] | < 100 nM
CCOCC(=O)Nc1c[nH]nc1C(=O)NCc1ccco1 [Example 147, 4-[(ethoxyacetyl)amino]-N-(2-furylmethyl)-1H-pyrazole-3-carboxamide] | < 100 nM
O=C(Nc1c[nH]nc1C(=O)NCc1ccccc1)c1cnccn1 [Example 119, N-{3-[(benzylamino)carbonyl]-1H-pyrazol-4-yl}pyrazine-2-carboxamide] | < 100 nM
O=C(Nc1c[nH]nc1C(=O)NC1Cc2ccccc2C1)c1ccccn1 [Example 339] | < 100 nM
O=C(COc1ccccc1)Nc1c[nH]nc1C(=O)NCCc1ccccc1 [Example 123, 4-[(phenoxyacetyl)amino]-N-(2-phenylethyl)-1H-pyrazole-3-carboxamide] | < 100 nM
N#Cc1ccc(NCCNC(=O)c2n[nH]cc2NC(=O)c2ccccn2)nc1 [Example 350] | < 100 nM
O=C(NC1CCCC1)c1n[nH]cc1NC(=O)c1c(F)cccc1F [Example 366, N-cyclopentyl-4-((2,6-difluorobenzoyl)amino)-1H-pyrazole-3-carboxamide] | < 100 nM
CC(=O)Nc1cccc(C(=O)Nc2c[nH]nc2C(=O)NCCCOC(C)C)c1 [Example 385, 4-((3-(acetylamino)benzoyl)amino)-N-(3-isopropoxypropyl)-1H-pyrazole-3-carboxamide] | < 100 nM
O=C(/C=C/c1ccccc1)Nc1c[nH]nc1C(=O)NCc1ccco1 [Example 148, N-(2-furylmethyl)-4-{[(2E)-3-phenylprop-2-enoyl]amino}-1H-pyrazole-3-carboxamide] | 388 nM
O=C(CCc1ccccc1)Nc1c[nH]nc1C(=O)NCc1ccco1 [Example 149, N-(2-furylmethyl)-4-[(3-phenylpropanoyl)amino]-1H-pyrazole-3-carboxamide] | 334 nM
Cc1cccc(C(=O)Nc2c[nH]nc2C(=O)NCC(F)(F)F)n1 [Example 389, 6-methyl-N-(3-(((2,2,2-trifluoroethyl)amino)carbonyl)-1H-pyrazol-4-yl)pyridine-2-carboxamide] | < 100 nM
COCCNC(=O)c1n[nH]cc1NC(=O)c1ccccn1 [Example 356, N-(3-(((2-methoxyethyl)amino)carbonyl)-1H-pyrazol-4-yl)pyridine-2-carboxamide] | < 100 nM
O=C(Nc1c[nH]nc1C(=O)Nc1cccc(C(F)(F)F)c1)c1ccccn1 [Example 343, N-(3-(((3-(trifluoromethyl)phenyl)amino)carbonyl)-1H-pyrazol-4-yl)pyridine-2-carboxamide] | < 100 nM
O=C(/C=C/c1ccccc1)Nc1c[nH]nc1C(=O)NCCc1ccccc1 [Example 127, N-(2-phenylethyl)-4-{[(2E)-3-phenylprop-2-enoyl]amino}-1H-pyrazole-3-carboxamide] | < 100 nM
O=C(Nc1c[nH]nc1C(=O)Nc1ccccc1)c1ccccn1 [Example 341, N-(3-(anilinocarbonyl)-1H-pyrazol-4-yl)pyridine-2-carboxamide] | < 100 nM
O=C(Nc1c[nH]nc1C(=O)NCc1ccccc1)c1ccc(OC(F)(F)F)cc1 [Example 117, N-benzyl-4-{[4-(trifluoromethoxy)benzoyl]-amino}-1H-pyrazole-3-carboxamide] | 157 nM
O=C(Nc1c[nH]nc1C(=O)NCc1ccccc1)c1ccccn1 [Example 337, N-(3-((benzylamino)carbonyl)-1H-pyrazol-4-yl)pyridine-2-carboxamide] | < 100 nM
Cc1[nH]nc(C(=O)NC2CCCC2)c1NC(=O)c1ccccc1 [Example 378, 4-(benzoylylamino)-N-cyclopentyl-5-methyl-1H-pyrazole-3-carboxamide] | 1000 nM
CC(=O)Nc1cccc(C(=O)Nc2c[nH]nc2C(=O)NCCS(C)(=O)=O)c1 [Example 382, 4-((3-(acetylamino)benzoyl)amino)-N-(2-(methylsulfonyl)ethyl)-1H-pyrazole-3-carboxamide] | < 100 nM
O=C(Nc1c[nH]nc1C(=O)NCCc1ccccc1)c1ccc(C(F)(F)F)cc1 [Example 132, N-(2-phenylethyl)-4-{[4-(trifluoromethyl)ben-zoyl]-amino}-1H-pyrazole-3-carboxamide] | 101 nM

Second part, the compound after the results:

IC50 | Compound
< 100 nM | N#CCCNC(=O)c1n[nH]cc1NC(=O)c1cccc(C#N)c1 [Example 417, N-(2-cyanoethyl)-4-(3-cyanobenzoylamino)-1H-pyrazole-3-carboxamide]
379 nM | O=C(Cc1c[nH]c2ccccc12)Nc1c[nH]nc1C(=O)Nc1ccccc1 [compound 089]
< 100 nM | O=C(Nc1c[nH]nc1C(=O)Nc1ccccc1)c1cnccn1 [compound 098]
102 nM | O=C(CC1CCCC1)Nc1c[nH]nc1C(=O)NCc1ccccc1 [compound 099]
109 nM | CC(C)NC(=O)c1n[nH]cc1NS(=O)(=O)C[C@]12CCC(CC1=O)C2(C)C [compound 197]
< 100 nM | CC(C)NC(=O)c1n[nH]cc1NC(=O)c1ccc(-c2ccccc2)cc1 [compound 028]
< 100 nM | O=C(Nc1c[nH]nc1C(=O)NCc1ccco1)c1ccc2[nH]ccc2c1 [compound 161]
< 100 nM | COc1ccccc1CC(=O)Nc1c[nH]nc1C(=O)NC1CCCC1 [compound 068]
< 100 nM | O=C(Cc1c[nH]c2ccccc12)Nc1c[nH]nc1C(=O)NC1CCCC1 [compound 069]
< 100 nM | O=C(Nc1c[nH]nc1C(=O)NC1CCCC1)c1ccccc1 [compound 070]
< 100 nM | CC(C)NC(=O)c1n[nH]cc1NC(=O)c1ccc(F)cc1F [compound 031]
< 100 nM | O=C(Nc1ccccc1)c1n[nH]cc1NC(=O)c1c[nH]c2ccccc12 [compound 097]
< 100 nM | O=C(Nc1ccccc1)c1n[nH]cc1NC(=O)C1CCCCC1 [compound 084]
< 100 nM | O=C(Nc1c[nH]nc1C(=O)NCC(F)(F)F)c1ccccc1 [Example 422, 4-(benzoylamino)-N-(2,2,2-trifluoroethyl)-1H-pyrazole-3-carboxamide]
< 100 nM | CC(C)NC(=O)c1n[nH]cc1NC(=O)C1CCCCC1 [compound 020]
< 100 nM | CCOCC(=O)Nc1c[nH]nc1C(=O)NC1CCCC1 [compound 064]
269 nM | O=C(/C=C/c1ccccc1)Nc1c[nH]nc1C(=O)N1CCCC1 [compound 045]
< 100 nM | O=C(Nc1c[nH]nc1C(=O)NCCNc1ccccn1)c1ccccn1 [Example 397, N-(3-(((2-(pyridin-2-ylamino)ethyl)amino)carbonyl)-1H-pyrazol-4-yl)pyridine-2-carboxamide]
< 100 nM | CNC(=O)c1n[nH]cc1NC(=O)C(c1ccccc1)c1ccccc1 [compound 003]
